Measured values taken from ChEMBL document CHEMBL3102801, “Synthesis and antiproliferative activity of new derivatives containing the polycyclic system 5,7:7,13-dimethanopyrazolo[3,4-b]pyrazolo[3',4':2,3]azepino[4,5-f]azocine” (Eur J Med Chem, 2014).
Activity calls are given as the source filed them. No cut-off for these calls is given here.

Assays:
KM12 = assay: Growth inhibition of human KM12 cells after 48 hrs by sulforhodamine B assay; assay type: functional; conditions: KM12, 48 h
HT-29 = assay: Growth inhibition of human HT-29 cells after 48 hrs by sulforhodamine B assay; assay type: functional; conditions: HT-29, 48 h
HCT-116 [1] = assay: Growth inhibition of human HCT116 cells after 48 hrs by sulforhodamine B assay; assay type: functional; conditions: HCT-116, 48 h
COLO 205 = assay: Growth inhibition of human COLO205 cells after 48 hrs by sulforhodamine B assay; assay type: functional; conditions: COLO 205, 48 h
NCI-H522 = assay: Growth inhibition of human NCI-H522 cells after 48 hrs by sulforhodamine B assay; assay type: functional; conditions: NCI-H522, 48 h
NCI-H460 = assay: Growth inhibition of human NCI-H460 cells after 48 hrs by sulforhodamine B assay; assay type: functional; conditions: NCI-H460, 48 h
NCI-H23 = assay: Growth inhibition of human NCI-H23 cells after 48 hrs by sulforhodamine B assay; assay type: functional; conditions: NCI-H23, 48 h
NCI-H226 = assay: Growth inhibition of human NCI-H226 cells after 48 hrs by sulforhodamine B assay; assay type: functional; conditions: NCI-H226, 48 h
[2] = Growth inhibition of human HOP92 cells after 48 hrs by sulforhodamine B assay; assay type: functional; conditions: HOP-92, 48 h
A549 = assay: Growth inhibition of human A549 cells after 48 hrs by sulforhodamine B assay; assay type: functional; conditions: A549, 48 h
CCRF-CEM = assay: Growth inhibition of human CCRF-CEM cells after 48 hrs by sulforhodamine B assay; assay type: functional
[3] = biological target: T1, Retinoblastoma-associated protein (Homo sapiens) (UniProt P06400); assay: Inhibition of pRb p110 phosphorylation in human MDA-MB-231 cells after 48 hrs by Western blotting; assay type: cell-based
T1 sequence (whole entry): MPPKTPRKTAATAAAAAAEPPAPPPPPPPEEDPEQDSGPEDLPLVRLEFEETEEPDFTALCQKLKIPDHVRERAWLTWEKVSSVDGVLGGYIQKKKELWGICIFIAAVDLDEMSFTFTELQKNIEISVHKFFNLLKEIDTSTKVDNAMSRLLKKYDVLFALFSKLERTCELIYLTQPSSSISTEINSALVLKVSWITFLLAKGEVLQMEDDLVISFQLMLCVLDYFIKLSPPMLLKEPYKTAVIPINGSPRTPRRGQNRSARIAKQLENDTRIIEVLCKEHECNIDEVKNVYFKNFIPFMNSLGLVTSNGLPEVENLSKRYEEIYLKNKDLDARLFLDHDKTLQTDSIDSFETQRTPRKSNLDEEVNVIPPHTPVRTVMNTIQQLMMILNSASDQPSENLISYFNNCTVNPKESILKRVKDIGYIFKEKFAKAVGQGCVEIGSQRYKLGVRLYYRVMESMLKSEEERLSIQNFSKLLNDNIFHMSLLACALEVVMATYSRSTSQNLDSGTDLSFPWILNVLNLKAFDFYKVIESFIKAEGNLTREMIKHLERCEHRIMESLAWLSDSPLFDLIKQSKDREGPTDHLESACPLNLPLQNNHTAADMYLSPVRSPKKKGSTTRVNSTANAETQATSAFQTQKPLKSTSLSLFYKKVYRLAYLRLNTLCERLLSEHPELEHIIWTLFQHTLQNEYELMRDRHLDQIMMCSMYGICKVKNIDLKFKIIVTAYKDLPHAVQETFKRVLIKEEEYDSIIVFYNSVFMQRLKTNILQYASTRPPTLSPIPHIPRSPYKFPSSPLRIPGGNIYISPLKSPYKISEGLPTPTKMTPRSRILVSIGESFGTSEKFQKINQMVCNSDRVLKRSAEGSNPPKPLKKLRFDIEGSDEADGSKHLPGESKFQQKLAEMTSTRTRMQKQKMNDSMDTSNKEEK

[4] = biological target: T1, Retinoblastoma-associated protein (Homo sapiens); assay: Inhibition of pRb p110 phosphorylation in human MDA-MB-231 cells at 5 to 10 uM after 48 hrs by Western blotting relative to unphosphorylated p105; assay type: cell-based
HCT-116 [5] = assay: Cell cycle arrest in human HCT116 cells assessed as accumulation of G2-M phase at 10 uM after 48 hrs using propidium iodide staining by flow cytometric analysis (reference value: 19.2%); assay type: functional
HCT-116 [6] = assay: Cell cycle arrest in human HCT116 cells assessed as accumulation of G0-G1 phase at 10 uM after 48 hrs using propidium iodide staining by flow cytometric analysis (reference value: 45.7%); assay type: functional
HCT-116 [7] = assay: Cell cycle arrest in human HCT116 cells assessed as accumulation of sub-G0-G1 phase at 10 uM after 48 hrs using propidium iodide staining by flow cytometric analysis (reference value: 15.2%); assay type: functional
MDA-MB-231 [8] = assay: Cell cycle arrest in human MDA-MB-231 cells assessed as accumulation of sub-G0-G1 phase at 10 uM after 48 hrs using propidium iodide staining by flow cytometric analysis (reference value: 8.4%); assay type: functional
MDA-MB-231 [9] = assay: Cell cycle arrest in human MDA-MB-231 cells assessed as accumulation of G0-G1 phase at 5 uM after 48 hrs using propidium iodide staining by flow cytometric analysis (reference value: 42.2%); assay type: functional
[10] = Therapeutic index, ratio of IC50 for human HeDe cells to IC50 for human MDA-MB-231 cells; assay type: cell-based; conditions: HeDe cells versus MDA-MB-231 cells, read-out: TI
[11] = Cytotoxicity against human HuDe cells after 48 hrs by sulforhodamine B assay; assay type: cell-based
T47D = assay: Growth inhibition of human T47D cells after 48 hrs by sulforhodamine B assay; assay type: functional
PC-3 = assay: Growth inhibition of human PC3 cells after 48 hrs by sulforhodamine B assay; assay type: functional; conditions: PC-3, 48 h
[12] = Growth inhibition of human RXF393 cells after 48 hrs by sulforhodamine B assay; assay type: functional; conditions: RXF 393, 48 h
CAKI-1 = assay: Growth inhibition of human CAKI-1 cells after 48 hrs by sulforhodamine B assay; assay type: functional; conditions: CAKI-1, 48 h
ACHN = assay: Growth inhibition of human ACHN cells after 48 hrs by sulforhodamine B assay; assay type: functional
SK-OV-3 = assay: Growth inhibition of human SKOV3 cells after 48 hrs by sulforhodamine B assay; assay type: functional; conditions: SK-OV-3, 48 h
IGROV-1 = assay: Growth inhibition of human IGROV1 cells after 48 hrs by sulforhodamine B assay; assay type: functional; conditions: IGROV-1, 48 h
SK-MEL-28 = assay: Growth inhibition of human SK-MEL-28 cells after 48 hrs by sulforhodamine B assay; assay type: functional; conditions: SK-MEL-28, 48 h
MDA-MB-435 = assay: Growth inhibition of human MDA-MB-435 cells after 48 hrs by sulforhodamine B assay; assay type: functional; conditions: MDA-MB-435, 48 h
M14 = assay: Growth inhibition of human M14 cells after 48 hrs by sulforhodamine B assay; assay type: functional; conditions: M14, 48 h
U-251 = assay: Growth inhibition of human U251 cells after 48 hrs by sulforhodamine B assay; assay type: functional; conditions: U-251, 48 h
[13] = Growth inhibition of human SF539 cells after 48 hrs by sulforhodamine B assay; assay type: functional; conditions: SF-539, 48 h
SF-268 = assay: Growth inhibition of human SF268 cells after 48 hrs by sulforhodamine B assay; assay type: functional; conditions: SF-268, 48 h

**Q.** What does the source list for `C=C1c2c(C)nn(-c3ccc(OC)cc3)c2N(C)C23CC1C1(C)c4c(C)nn(-c5ccc(OC)cc5)c4N(C)C(C)(CC12)C3` (stereo not drawn)?
**A.** GI50 (KM12): 3.75 µM; GI50 (HT-29): 3.24 µM; GI50 (HCT-116 [1]): 2.82 µM; GI50 (COLO 205): 2.2 µM; GI50 (NCI-H522): 2.77 µM; GI50 (NCI-H460): 2.49 µM; GI50 (NCI-H23): 3.86 µM; GI50 (NCI-H226): 4.44 µM; GI50 [2]: 1.18 µM; GI50 (A549): 2.69 µM; GI50 (CCRF-CEM): 3.41 µM; inhibition [3]: Dose-dependent effect; inhibition [4]: Active; Activity (HCT-116 [5]): 10.3%; Activity (HCT-116 [6]): 63.8%; Activity (HCT-116 [7]): 13.5%; Activity (MDA-MB-231 [8]): 4.6%; Activity (MDA-MB-231 [9]): 53.5%; selectivity ratio [10]: 24.4; IC50 [11]: 76 µM; GI50 (T47D): 1.81 µM; GI50 (PC-3): 1.75 µM; GI50 [12]: 1.9 µM; GI50 (CAKI-1): 2.67 µM; GI50 (ACHN): 3.3 µM; GI50 (SK-OV-3): 3.39 µM; GI50 (IGROV-1): 7.54 µM; GI50 (SK-MEL-28): 5.86 µM; GI50 (MDA-MB-435): 3.4 µM; GI50 (M14): 3.88 µM; GI50 (U-251): 2.67 µM; GI50 [13]: 3.16 µM; GI50 (SF-268): 3.63 µM
